Source: ChEMBL document CHEMBL5634069, “Exploring N-myristoyltransferase as a promising drug target against parasitic neglected tropical diseases” (Eur J Med Chem, 2023)
Each block holds one molecule with its values, some of them ahead of it.

How the values were obtained:
[1] = Inhibition of Trypanosoma brucei NMT
Leishmania amazonensis = assay: Antileishmanial activity against Leishmania amazonensis IFLA/BR/1967/PH8 promastigote; format: functional, organism-based
[2] = Inhibition of Trypanosoma brucei NMT by scintillation proximity assay
Trypanosoma brucei [3] = assay: Antitrypanosomal activity against Trypanosoma brucei assessed as reduction in parasite growth; format: functional, organism-based
[4] = Inhibition of N terminal his-6 tagged recombinant Trypanosoma brucei NMT incubated for 30 mins using biotinylated peptide substrate by scintillation counter analysis
[5] = test system: Trypanosoma brucei brucei; assay: Antitrypanosomal activity against bloodstream Trypanosoma brucei brucei s427 assessed as reduction in parasite growth measured after 72 hrs by inverted microscope based analysis; format: functional, organism-based; settings: s427, 72 h
[6] = target: T1, Glycylpeptide N-tetradecanoyltransferase (Plasmodium falciparum, UniProt Q9U419); assay: Inhibition of recombinant N-terminal Plasmodium falciparum NMT expressed in Escherichia coli using peptide substrate preincubated for 5 mins followed by substrate addition and measured after 30 mins by scintillation proximity assay
T1 sequence (Q9U419 whole entry): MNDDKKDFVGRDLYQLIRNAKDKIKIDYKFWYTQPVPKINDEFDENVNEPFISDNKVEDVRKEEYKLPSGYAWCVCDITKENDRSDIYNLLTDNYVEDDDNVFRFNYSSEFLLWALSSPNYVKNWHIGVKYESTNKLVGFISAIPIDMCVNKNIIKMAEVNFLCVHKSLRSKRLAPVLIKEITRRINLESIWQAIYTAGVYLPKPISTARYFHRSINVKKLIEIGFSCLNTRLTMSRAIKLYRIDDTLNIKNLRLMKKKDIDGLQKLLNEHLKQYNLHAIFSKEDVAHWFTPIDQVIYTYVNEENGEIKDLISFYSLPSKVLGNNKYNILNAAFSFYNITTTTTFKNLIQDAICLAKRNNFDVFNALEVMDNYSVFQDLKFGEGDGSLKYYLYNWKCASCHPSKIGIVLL

Plasmodium falciparum [7] = assay: Antiplasmodial activity against synchronized late stage trophozoite Plasmodium falciparum 3D7 assessed as reduction in parasitemia relative to control; format: functional; set-up: scale not given: the % may be the effect or the level left
Trypanosoma brucei [8] = assay: Antiprotozoal activity against blood stream form Trypanosoma brucei assessed as reduction in number of viable parasites measured after 72 hrs by Alamar blue staining based analysis; format: functional; settings: read-out: ED50 (the source's name)
[9] = Inhibition of N terminal his-6 tagged recombinant Trypanosoma brucei NMT using CAP5.5 peptide as substrate incubated for 10 mins
[10] = Cytotoxicity against mouse RAW 264 cells by alamar blue staining based analysis; format: functional; settings: RAW264.7, read-out: ED50 (the source's name)
[11] = target: T2, Glycylpeptide N-tetradecanoyltransferase 1 (Homo sapiens, UniProt P30419); assay: Inhibition of human NMT1
T2 sequence (P30419 whole entry): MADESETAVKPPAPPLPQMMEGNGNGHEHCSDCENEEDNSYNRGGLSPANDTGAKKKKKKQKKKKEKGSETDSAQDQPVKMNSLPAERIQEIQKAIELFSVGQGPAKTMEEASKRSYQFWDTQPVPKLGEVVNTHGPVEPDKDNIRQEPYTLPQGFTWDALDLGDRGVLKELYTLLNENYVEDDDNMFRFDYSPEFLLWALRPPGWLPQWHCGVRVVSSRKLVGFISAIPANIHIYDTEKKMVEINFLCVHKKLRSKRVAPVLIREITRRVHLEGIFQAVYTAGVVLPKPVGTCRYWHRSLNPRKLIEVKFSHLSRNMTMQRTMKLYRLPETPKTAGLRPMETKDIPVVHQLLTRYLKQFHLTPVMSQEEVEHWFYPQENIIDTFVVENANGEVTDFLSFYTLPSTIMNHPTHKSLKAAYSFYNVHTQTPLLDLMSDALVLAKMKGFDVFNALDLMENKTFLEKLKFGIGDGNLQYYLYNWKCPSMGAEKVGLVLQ

[12] = target: T3, Glycylpeptide N-tetradecanoyltransferase 2 (Homo sapiens, UniProt O60551); assay: Inhibition of human NMT2
T3 sequence (O60551 whole entry): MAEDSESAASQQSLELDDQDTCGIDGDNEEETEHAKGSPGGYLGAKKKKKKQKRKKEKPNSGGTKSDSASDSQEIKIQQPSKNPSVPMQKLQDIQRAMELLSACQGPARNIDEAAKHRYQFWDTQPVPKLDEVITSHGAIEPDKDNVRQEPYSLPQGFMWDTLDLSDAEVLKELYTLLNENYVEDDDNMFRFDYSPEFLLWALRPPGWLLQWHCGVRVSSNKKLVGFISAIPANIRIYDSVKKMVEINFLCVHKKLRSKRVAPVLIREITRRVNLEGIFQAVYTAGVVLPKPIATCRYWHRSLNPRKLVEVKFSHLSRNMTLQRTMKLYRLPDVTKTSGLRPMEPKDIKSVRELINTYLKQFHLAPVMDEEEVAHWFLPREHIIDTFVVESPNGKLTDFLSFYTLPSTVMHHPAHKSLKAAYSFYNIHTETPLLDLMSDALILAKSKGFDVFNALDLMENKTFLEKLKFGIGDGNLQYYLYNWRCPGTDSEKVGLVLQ

[13] = target: T1, Glycylpeptide N-tetradecanoyltransferase; assay: Inhibition of recombinant Plasmodium falciparum NMT using 3H-myristoyl CoA as substrate preincubated for 15 mins followed by substrate addition and measured after 80 mins
Leishmania donovani [14] = assay: Antileishmanial activity against Leishmania donovani promastigote assessed as reduction in parasite growth measured after 72 hrs; format: functional, organism-based
Trypanosoma cruzi = assay: Antiprotozoal activity against Trypanosoma cruzi amastigotes measured after 24 hrs; format: functional, organism-based
[15] = target: T1, Glycylpeptide N-tetradecanoyltransferase; assay: Inhibition of recombinant his tagged Plasmodium falciparum NMT expressed in Escherichia coli
Plasmodium falciparum [16] = assay: Antiplasmodial activity against Plasmodium falciparum 3D7 assessed as reduction in parasitemia growth; format: functional, organism-based
[17] = target: T2, Glycylpeptide N-tetradecanoyltransferase 1; assay: Inhibition of human NMT
[18] = Selectivity index, ratio of IC50 for MDCK cells to IC50 for trophozoite stage Plasmodium falciparum 3D7; format: toxicity; settings: dog; read-out: Ratio IC50
Plasmodium falciparum [19] = assay: Antiplasmodial activity against trophozoite stage Plasmodium falciparum 3D7 assessed as inhibition of plasmodial growth measured after 48 hrs by flow cytometry analysis; format: functional, organism-based; settings: 3D7, 48 h
Plasmodium falciparum [20] = assay: Antiplasmodial activity against chloroquine resistant Plasmodium falciparum K1 assessed as inhibition of plasmodial growth measured after 48 hrs by flow cytometry analysis; format: functional, organism-based; settings: K1, 48 h
[21] = Cytotoxicity against MDCK cells incubated overnight by MTT assay; format: toxicity, cell-based, Canis lupus familiaris; settings: dog
Leishmania donovani [22] = assay: Antileishmanial activity against Leishmania donovani amastigotes; format: functional, organism-based
[23] = Binding affinity to Leishmania donovani NMT assessed as apparent inhibition constant; settings: read-out: Ki(app)
Leishmania donovani [24] = assay: Antileishmanial activity against Leishmania donovani MHOM/ET/67/HU3 infected in BALB/c mouse model assessed as reduction in parasitic load at 50 mg/kg, po measured after 5 days relative to control; format: functional; set-up: scale not given: the % may be the effect or the level left; settings: time 5 day
Leishmania donovani [25] = assay: Antileishmanial activity against Leishmania donovani MHOM/ET/67/HU3 axenic amastigotes; format: functional, organism-based

EC50 (Trypanosoma brucei [3]): 0.007 µM
Structure (SMILES): Cc1cc(CN2C(=O)COc3c(CCCCC4CCNCC4)cccc32)no1

IC50 [6]: 53 µM
Structure (SMILES): O=C(Nc1nc2cc(F)ccc2s1)[C@H]1CC[C@@H](NCc2ccc3ccccc3c2)CC1
Activity (Plasmodium falciparum [7]): 80%

IC50 [5]: 45 µM
Structure (SMILES): Cc1onc(-c2ccccc2)c1CNS(=O)(=O)c1cnn(-c2ccccc2)c1C
IC50 (Leishmania donovani [14]): 15.7 µM

EC50 (Trypanosoma cruzi): 0.02 µM
Structure (SMILES): Cc1nn(C)c(C)c1N(C(F)F)S(=O)(=O)c1c(Cl)cc(-c2ccc(CCCCC3CCN(C)CC3)cc2)cc1Cl

EC50 (Trypanosoma brucei [3]): 0.007 µM
Structure (SMILES): Cc1cc(CN2C(=O)COc3cc(CCCOC4CCNCC4)ccc32)no1

IC50 [17]: 0.1 µM | EC50 (Trypanosoma brucei [3]): 0.007 µM
Structure (SMILES): Cc1cc(CN2C(=O)COc3c(CCCCC4CCCN(C)CC4)cccc32)no1 (configuration not stated)
IC50 [1]: < 0.002 µM

IC50 [6]: 53 µM
Structure (SMILES): CN(C)C(=O)c1ccc2nc(NC(=O)[C@@H]3CCC[C@H](NCc4ccc5ccoc5c4)C3)sc2c1

EC50 (Leishmania donovani [25]): 2.4 µM
Structure (SMILES): Cc1nn(C)c(C)c1N(C(F)F)S(=O)(=O)c1c(Cl)cc(CCCC2CCN(C)CC2)cc1Cl
Activity (Leishmania donovani [24]): 52%

The next lines start with the molecule.

Structure (SMILES): CCOC(=O)CN1C(=O)COc2ccccc21
IC50 [1]: 12 µM

Structure (SMILES): O=C(C[Se]C(=O)c1ccccc1)Nc1ccc(Cl)cc1
IC50 (Leishmania amazonensis): 7.08 µM

Structure (SMILES): Cc1nn(C)c(C)c1NS(=O)(=O)c1c(Cl)cc(Br)cc1Cl
IC50 [2]: 0.34 µM

Structure (SMILES): O=C(C[Se]C(=O)c1ccccc1)Nc1ccc(Br)cc1
IC50 (Leishmania amazonensis): 5.5 µM

Structure (SMILES): O=C(O)C1=CC(=C(c2ccc(O)c(C(=O)O)c2)c2ccc(O)c(C(=O)O)c2)C=CC1=O [AURINTRICARBOXYLIC ACID]
IC50 [4]: 0.74 µM

Structure (SMILES): COc1ccc(Br)c(-c2nnc(-c3ccccc3NS(=O)(=O)c3ccc(Cl)cc3)o2)c1
IC50 [5]: 14.7 µM

Structure (SMILES): CCc1ccc(NC(=O)C[Se]C(=O)c2ccc(Cl)cc2)cc1
IC50 (Leishmania amazonensis): 7.41 µM

Structure (SMILES): Cc1c2c(c(O)c3c(O)cccc13)C(=O)OC2c1cc(O)c(C(N)=O)c(O)c1O (configuration not stated)
EC50 (Trypanosoma brucei [8]): 16 µM | IC50 [9]: 0.46 µM | IC50 [4]: 0.77 µM | EC50 [10]: 328 µM

Structure (SMILES): Cc1ncc(CNC(=O)C2CN(c3nc(NCCN(C)C)ncc3Cl)C2)cn1
IC50 [11]: 70 µM | IC50 [12]: 76 µM | IC50 [13]: 0.48 µM

Structure (SMILES): Cc1cc(Nc2ccc([N+](=O)[O-])cc2O)nc2ccccc12
IC50 [15]: 1.4 µM | EC50 (Plasmodium falciparum [16]): 0.4 µM

Structure (SMILES): COc1cc(C2SCC(=O)N2Cc2ccccc2)ccc1O (configuration not stated)
IC50 [1]: 22 µM

Structure (SMILES): O=S(=O)(c1cc(Cl)ccc1Cl)N1CCC(O[C@@H](c2ccc(Cl)cc2)c2ccccn2)CC1
selectivity ratio [18]: > 68.8 | IC50 (Plasmodium falciparum [19]): 2.91 µM | IC50 (Plasmodium falciparum [20]): 4.19 µM | IC50 [21]: > 200 µM

Structure (SMILES): Cc1nn(C)c(C)c1NS(=O)(=O)c1c(Cl)cc(-c2ccnc(N3CCN(C)CC3)c2)cc1Cl
EC50 (Leishmania donovani [22]): 0.15 µM | Ki [23]: 0.0063 µM

Structure (SMILES): COc1ccc(NC(=O)C[Se]C(=O)c2ccccc2)cc1
IC50 (Leishmania amazonensis): 8.71 µM
